# Patent US8232407B2, “Nitrogenous heterocyclic compounds with insecticidal activity, and the preparation and use thereof” (East China University of Science and Technology, priority 2008, dated 2012)
# Columns and labels:
# Aphis craccivoral = assay: Insecticidal activities to aphids, immersion method; assay type: in vivo; conditions: in vivo
# Description: (1): Insecticidal Activities to Aphids
# Aphis (Aphis craccivoral), which belongs to Homoptera and has a piercing-sucking mouthpart, is a common insect for agricultural plant. Aphis craccivoral was tested by immersion method.
# Procedure: exactly weighed various samples were independently added to N,N-dimethylformamide to form 10 g/L stock solutions. The stock solutions were diluted with 0.2 mL/L aqueous Triton X-100 solution to a concentration of 500 ppm. After stably sucking on bean sprout, the wingless adult aphis together with bean sprout were dipped into 500 ppm dilution, taken out after 5 seconds, and the excess dilution was sucked off with bibulous paper. The treated wingless adult aphis was incubated in clean vessel at a constant temperature of 23° C. Each concentration was repeated for 3 times and the control group was treated with 0.2mL/L aqueous Triton X-100 solution. The number of killed aphis was counted after 24 hours and the mortality was to calculated according to the following formula:
# (§1) Mortality (%)=(the number of the survival aphis in control group−the number of the survival aphis in the treatment group)/the number of the survival aphis in control group×100%
# Nilaparvata lugens = assay: Insecticidal activities to plant hopper, spraying method; assay type: in vivo; conditions: in vivo
# Description: as §1
# (2): Insecticidal Activities to Plant hopper
# Plant hopper (Nilaparvata lugens), which belongs to Homoptera and has a piercing-sucking mouthpart, is a common insect for agricultural plant. Nilaparvata lugens was tested by spraying method.
# Procedure: the test compound was exactly formulated with acetone to form solutions having concentrations of 500, 250, 100, 50, 25, 12.5, 6.25, 3.13, 1.57 and 0.79 ppm, respectively. Aqueous acetone solution was used as control. Each treatment was repeated for 3 tumblers (3 times). Two ml of solution was sprayed uniformly to each tumbler with a mini manual sprayer. 10 insects were introduced to every basin 6 hours before spraying. Three series of experiments were conducted. The number of killed insects was counted after 24 hours to calculate the mortality according to the above mentioned formula.
SMILES,Aphis craccivoral Mortality (%) 500 ppm (Aphis craccivoral) [%],Nilaparvata lugens Mortality (%) 500 ppm (Nilaparvata lugens) [%]
CCN(Cc1ccc(Cl)nc1)C(=NC)C(=Cc1ccc(Cl)o1)[N+](=O)[O-] [Compound 182],100,100
CN=C(NCc1ccc(Cl)nc1)C(=Cc1cccs1)[N+](=O)[O-] [Compound 156],89,90
CCN(Cc1cnc(Cl)s1)C(=NC)C(=Cc1ccco1)[N+](=O)[O-] [Compound 225],90,78
CCN=C(C(=Cc1ccc(Cl)o1)[N+](=O)[O-])N(C)Cc1ccc(Cl)nc1 [Compound 173],87,85
CN=C(C(=Cc1ccc[nH]1)[N+](=O)[O-])N(C)Cc1cnc(Cl)s1 [Compound 224],32,52
CN=C(NCc1ccc(Cl)nc1)C(=Cc1ccc(Br)o1)[N+](=O)[O-] [Compound 155],67,36
CCN(Cc1ccc(Cl)nc1)C(=NC)C(=Cc1ccoc1)[N+](=O)[O-] [Compound 180],100,100
CN=C(C(=Cc1ccsc1)[N+](=O)[O-])N(C)Cc1cnc(Cl)s1 [Compound 221],78,87
CN=C(NCc1ccc(Cl)nc1)C(=Cc1ccoc1)[N+](=O)[O-] [Compound 152],67,64
CN=C(C(=Cc1ccc[nH]1)[N+](=O)[O-])N(C)Cc1ccc(Cl)nc1 [Compound 170],89,34
CN=C(C(=C(C)c1ccsc1)[N+](=O)[O-])N(C)C(C)c1ccc(Cl)nc1 (stereo not shown) [Compound 213],89,68
CCN(Cc1ccc(Cl)nc1)C(=NC)C(=Cc1ccsc1)[N+](=O)[O-] [Compound 185],100,100
CN=C(C(=Cc1ccc(Cl)o1)[N+](=O)[O-])N(C)Cc1cnc(Cl)s1 [Compound 218],88,86
CCN(Cc1ccc(Cl)nc1)C(=NC)C(=C(C)c1ccc(Cl)s1)[N+](=O)[O-] [Compound 203],100,100
CN=C(C(=Cc1ccc([N+](=O)[O-])o1)[N+](=O)[O-])N(C)Cc1cnc(Cl)s1 [Compound 217],77,43
CN=C(C(=Cc1cccs1)[N+](=O)[O-])N(C)Cc1ccc(Cl)nc1 [Compound 236],82,79
CCN(C(=NC)C(=Cc1cccs1)[N+](=O)[O-])C(C)c1ccc(Cl)nc1 (stereo not shown) [Compound 210],100,100
CCN(Cc1ccc(Cl)nc1)C(=NC)C(=Cc1ccc(Cl)s1)[N+](=O)[O-] [Compound 187],100,100
CCN(Cc1ccc(Cl)nc1)C(=NC)C(=C(C)c1ccc([N+](=O)[O-])o1)[N+](=O)[O-] [Compound 197],98,100
CN=C(NCc1ccc(Cl)nc1)C(=Cc1ccc(Cl)s1)[N+](=O)[O-] [Compound 159],55,67
CN=C(C(=Cc1ccc([N+](=O)[O-])o1)[N+](=O)[O-])N(C)Cc1ccc(Cl)nc1 [Compound 163],100,100
CN=C(C(=Cc1ccc(Cl)s1)[N+](=O)[O-])N(C)Cc1ccc(Cl)nc1 [Compound 169],76,67
CCN(Cc1ccc(Cl)nc1)C(=NC)C(=Cc1cccs1)[N+](=O)[O-] [Compound 184],98,100
CN=C(C(=C(C)c1ccc([N+](=O)[O-])o1)[N+](=O)[O-])N(C)C(C)c1ccc(Cl)nc1 (stereo not shown) [Compound 212],96,100
CCN(Cc1cnc(Cl)s1)C(=NC)C(=Cc1ccoc1)[N+](=O)[O-] [Compound 226],68,49

SMILES,Aphis craccivoral Mortality (%) 500 ppm (Aphis craccivoral) [%],Nilaparvata lugens Mortality (%) 500 ppm (Nilaparvata lugens) [%]
CN=C(C(=Cc1ccc(Cl)s1)[N+](=O)[O-])N(C)Cc1ccc(Cl)nc1 [Compound 239],58,34
CN=C(C(=Cc1ccco1)[N+](=O)[O-])N(C)Cc1ccc(Cl)nc1 [Compound 161],100,65
CCN=C(C(=Cc1ccc([N+](=O)[O-])s1)[N+](=O)[O-])N(C)Cc1ccc(Cl)nc1 [Compound 176],86,100
CCN(Cc1cnc(Cl)s1)C(=NC)C(=Cc1ccc([N+](=O)[O-])o1)[N+](=O)[O-] [Compound 227],100,100
CN=C(C(=Cc1ccco1)[N+](=O)[O-])N(C)Cc1ccc(Cl)nc1 [Compound 232],96,56
CN=C(C(=Cc1ccsc1)[N+](=O)[O-])N(C)Cc1ccc(Cl)nc1 [Compound 237],87,98
CN=C(C(=C(C)c1ccc([N+](=O)[O-])s1)[N+](=O)[O-])N(C)C(C)c1ccc(Cl)nc1 (stereo not shown) [Compound 214],98,100
CCN(C(=NC)C(=Cc1ccoc1)[N+](=O)[O-])C(C)c1ccc(Cl)nc1 (stereo not shown) [Compound 206],65,44
CCN(Cc1ccc(Cl)nc1)C(=NC)C(=C(C)c1ccsc1)[N+](=O)[O-] [Compound 201],100,100
CCN(Cc1ccc(Cl)nc1)C(=NC)C(=C(C)c1ccc(Cl)o1)[N+](=O)[O-] [Compound 198],86,100
CN=C(C(=C(C)c1ccc[nH]1)[N+](=O)[O-])N(C)C(C)c1ccc(Cl)nc1 (stereo not shown) [Compound 216],100,100
CN=C(NCc1ccc(Cl)nc1)C(=Cc1ccc([N+](=O)[O-])o1)[N+](=O)[O-] [Compound 153],56,87
CN=C(C(=Cc1cccs1)[N+](=O)[O-])N(C)Cc1cnc(Cl)s1 [Compound 220],80,67
CCN(Cc1ccc(Cl)nc1)C(=NC)C(=Cc1ccoc1)[N+](=O)[O-] [Compound 242],100,100
CCN(C(=NC)C(=Cc1ccc([N+](=O)[O-])o1)[N+](=O)[O-])C(C)c1ccc(Cl)nc1 (stereo not shown) [Compound 207],94,100
CCN=C(C(=Cc1ccoc1)[N+](=O)[O-])N(CC)Cc1ccc(Cl)nc1 [Compound 190],87,100
CCN(Cc1ccc(Cl)nc1)C(=NC)C(=Cc1ccco1)[N+](=O)[O-] [Compound 241],68,76
CN=C(C(=Cc1ccc(Br)o1)[N+](=O)[O-])N(C)Cc1ccc(Cl)nc1 [Compound 235],91,86
CCN=C(C(=Cc1ccc(Br)o1)[N+](=O)[O-])N(CC)Cc1ccc(Cl)nc1 [Compound 193],89,100
CCN(Cc1cnc(Cl)s1)C(=NC)C(=Cc1ccc(Cl)o1)[N+](=O)[O-] [Compound 228],100,100
CCN(Cc1cnc(Cl)s1)C(=NC)C(=Cc1ccc([N+](=O)[O-])s1)[N+](=O)[O-] [Compound 229],65,75
CN=C(C(=Cc1ccc([N+](=O)[O-])s1)[N+](=O)[O-])N(C)Cc1cnc(Cl)s1 [Compound 222],46,67
CN=C(C(=Cc1ccc(Cl)s1)[N+](=O)[O-])N(C)Cc1cnc(Cl)s1 [Compound 223],65,53
CCN(Cc1ccc(Cl)nc1)C(=NC)C(=C(C)c1ccco1)[N+](=O)[O-] [Compound 195],100,–
